Experimental data from ChEMBL document CHEMBL2074311, “ATP-dependent para-aminohippurate transport by apical multidrug resistance protein MRP2” (Kidney Int, 2000).
pIC50: −log10 of the molar value.

Assays:
[1] = biological target: T1, ATP-binding cassette sub-family C member 2 (Homo sapiens, UniProt Q92887); experiment: TP_TRANSPORTER: inhibition of PAH uptake (PAH: 0.1uM) in membrane vesicles from MRP2-expressing HEK cells; format: functional, cell membranes, HEK293, Membrane vesicle
[2] = biological target: T1, ATP-binding cassette sub-family C member 2; experiment: TP_TRANSPORTER: uptake in membrane vesicles from MRP2-expressing HEK cells; format: functional, cell membranes, Membrane vesicle; conditions: hek293

T1 sequence (Q92887 whole entry): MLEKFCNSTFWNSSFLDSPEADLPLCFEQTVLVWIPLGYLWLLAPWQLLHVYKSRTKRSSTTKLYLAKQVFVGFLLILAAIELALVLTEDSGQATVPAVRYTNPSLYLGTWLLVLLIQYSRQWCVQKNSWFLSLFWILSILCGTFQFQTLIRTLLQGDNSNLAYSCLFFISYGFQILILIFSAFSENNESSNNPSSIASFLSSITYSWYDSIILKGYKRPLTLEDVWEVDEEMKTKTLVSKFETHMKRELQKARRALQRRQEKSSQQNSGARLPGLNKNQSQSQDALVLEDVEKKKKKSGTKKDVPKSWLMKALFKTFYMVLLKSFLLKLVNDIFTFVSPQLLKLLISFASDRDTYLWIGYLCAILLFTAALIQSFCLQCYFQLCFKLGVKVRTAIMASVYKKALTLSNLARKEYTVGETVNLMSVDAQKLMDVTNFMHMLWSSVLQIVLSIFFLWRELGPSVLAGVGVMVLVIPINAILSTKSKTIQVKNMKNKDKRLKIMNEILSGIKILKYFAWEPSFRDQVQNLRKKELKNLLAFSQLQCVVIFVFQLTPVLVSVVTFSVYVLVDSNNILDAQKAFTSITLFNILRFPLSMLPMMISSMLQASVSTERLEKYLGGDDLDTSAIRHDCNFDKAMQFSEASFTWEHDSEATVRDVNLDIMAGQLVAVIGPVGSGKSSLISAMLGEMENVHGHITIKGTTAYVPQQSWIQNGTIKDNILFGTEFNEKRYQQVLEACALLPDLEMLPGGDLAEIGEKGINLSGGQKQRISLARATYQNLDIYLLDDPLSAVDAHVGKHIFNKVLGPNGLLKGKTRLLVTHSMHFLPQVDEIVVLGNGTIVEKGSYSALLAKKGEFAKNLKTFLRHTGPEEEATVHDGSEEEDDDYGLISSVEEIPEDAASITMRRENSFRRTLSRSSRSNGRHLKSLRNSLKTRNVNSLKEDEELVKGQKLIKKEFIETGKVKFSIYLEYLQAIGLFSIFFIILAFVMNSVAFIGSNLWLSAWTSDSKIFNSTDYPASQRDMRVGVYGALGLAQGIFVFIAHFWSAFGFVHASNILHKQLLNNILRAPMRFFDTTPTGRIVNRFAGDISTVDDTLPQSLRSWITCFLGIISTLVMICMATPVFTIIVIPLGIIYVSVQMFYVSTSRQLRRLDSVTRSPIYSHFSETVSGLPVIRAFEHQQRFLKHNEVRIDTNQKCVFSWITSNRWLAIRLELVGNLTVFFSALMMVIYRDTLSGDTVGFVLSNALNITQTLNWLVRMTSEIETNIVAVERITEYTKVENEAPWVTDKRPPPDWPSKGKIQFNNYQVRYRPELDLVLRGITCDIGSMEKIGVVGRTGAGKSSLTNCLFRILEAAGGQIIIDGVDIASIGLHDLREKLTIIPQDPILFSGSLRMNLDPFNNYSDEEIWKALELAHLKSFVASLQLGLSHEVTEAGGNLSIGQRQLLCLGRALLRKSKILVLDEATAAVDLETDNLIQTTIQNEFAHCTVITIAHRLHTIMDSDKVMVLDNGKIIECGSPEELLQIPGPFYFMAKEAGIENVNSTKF

Row | SMILES | pIC50 [1] | Activity [2]
1 | C[C@@H]1Cc2c(Cl)cc(C(=O)N[C@@H](Cc3ccccc3)C(=O)O)c(O)c2C(=O)O1 [3R14S-OCHRATOXIN A] | 4.24 | substrate [+]
2 | CCCCC/C=C\C\C=C/C=C/C=C/[C@@H](SC[C@@H](NC(=O)CC[C@H](N)C(=O)O)C(=O)NCC(=O)O)[C@@H](O)CCCC(=O)O [LEUKOTRIEN C4] | 5.48 | 
3 | CN(C)C(=O)CCSC(SCCC(=O)O)c1cccc(/C=C/c2ccc3ccc(Cl)cc3n2)c1 (centres undefined) [MK-571] | 5.40 | 
